This note sets out measurements from patent US20120035175A1, “Novel salts as Anti-Inflammatory, Immunomodulatory and Anti-Proliferatory Agents” (4SC AG, priority 2010, published 2012).

A word on the IC50: it is the point on the concentration scale where inhibition reaches its midpoint.

Like-named read-outs stand apart in the source and are kept apart here.

For data set [1], the target named is T1, recombinant murine DHODH (Mus musculus, UniProt O35435).
T1 construct: Prof; M. Löffler, Marburg, Germany (gift)
Kind of data set: Inhibition assay of DHODH activity (murine enzyme). Format: biochemical. The conditions noted are these: class symbols, key in nM. As to the method: (§1) The standard assay mixture contained 50 μM decyclo ubichinone, 100 μM dihydroorotate, 60 μM 2,6-dichloroindophenol, as well as 20 mU DHODH. The volume activity of the recombinant enzyme used was 30 U/ml. Measurements were conducted in 50 mM TrisHCl (150 mM KCl, 0.1% Triton X-100, pH 8.0) at 30° C. in a final volume of 1 ml. The components were mixed, and the reaction was started by adding dihydroorotate. The course of reaction was followed by spectrophotometrically measuring the decrease in absorption at 600 nm for […].
(§2) Inhibitory studies were conducted in a standard assay with additional variable amounts of inhibitor. […] These investigations were carried out with recombinant human as well as with recombinant murine DHODH provided by Prof. M. Löffler, Marburg, Germany [M. Löffler, Chem. Biol. Interact.

In data set [2] the target is T2, recombinant human DHODH (Homo sapiens, UniProt Q02127).
T2 construct: Prof; M. Löffler, Marburg, Germany (gift)
Kind of data set: Inhibition assay of DHODH activity (human enzyme). Format: biochemical. Here is the method: as §1, §2

The nature of data set [3]: Dynamic vapor sorption (water uptake). Format: physicochemical. To be noted: for % water uptake at 85% r.h.: about 85% r.h. The source says:
DVS (SMS): Surface Measurement Systems Ltd. DVS-1 water vapour sorption analyzer. The sample is placed on a platinum sample pan and allowed to equilibrate at a given relative humidity (r.h.), usually 50% r.h. Then, a pre-defined humidity program was started with a scanning rate of 5% r.h. change per hour. First step: from 50% r.h. to 0% r.h. (in case of a possibly hydrate as starting material 50 to 95% r.h.), second step: from 0% to 95% r.h. (in case of a possibly hydrate as starting material 95 to 0% r.h.)

Data set [4] is described as follows: Long-term stability, 18 months storage, HPLC. The format is physicochemical. As to the method: HPLC: HPLC was performed with a Dionex UltiMate® 3000 liquid chromatograph comprising a solvent Rack, a vacuum degasser, a binary pump (mikro), a static mixer (500 μl), an autosampler, a 25 μl sample loop, a 100 μl syringe, a column oven and a DAD detector (semimicro measuring cell), which was set up for UV analysis. Data analysis was done with Chromeleon® 6.80 SP3. Compounds were separated at 30° C. on a Phenomenex Onyx™ Monolithic C18 50×2 mm column. The injection volume was 2 μl and the detection wavelength was 305 nm. As mobile phase, a gradient of 0.1% formic acid in HPLC grade water/acetonitrile was used, starting at a concentration of 5% acetonitrile. The starting concentration was held for 1 minute, then the gradient was ramped linearly to 95% acetonitrile over the course of 2 min, held for 0.7 min at 95% acetonitrile, after which it was returned to 5% acetonitrile within 0.1 min and kept constant for 0.7 min to re-equilibrate the column. The mobile phase flow rate was 1.5 ml/min.
The compounds were stored for 18 months at ambient conditions (20-25° C., 30-60% relative humidity) and subsequently analysed by HPLC for purity.

T1 sequence (O35435 whole entry): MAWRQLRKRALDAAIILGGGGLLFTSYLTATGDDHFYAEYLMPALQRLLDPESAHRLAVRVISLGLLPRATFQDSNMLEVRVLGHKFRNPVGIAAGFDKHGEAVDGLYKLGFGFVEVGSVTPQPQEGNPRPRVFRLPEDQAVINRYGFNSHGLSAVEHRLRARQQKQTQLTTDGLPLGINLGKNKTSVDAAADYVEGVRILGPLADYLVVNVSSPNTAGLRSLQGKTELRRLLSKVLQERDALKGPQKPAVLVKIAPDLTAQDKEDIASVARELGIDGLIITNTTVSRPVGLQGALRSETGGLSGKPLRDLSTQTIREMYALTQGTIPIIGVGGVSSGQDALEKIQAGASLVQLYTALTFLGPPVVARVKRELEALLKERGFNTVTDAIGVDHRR
T2 sequence (Q02127 whole entry): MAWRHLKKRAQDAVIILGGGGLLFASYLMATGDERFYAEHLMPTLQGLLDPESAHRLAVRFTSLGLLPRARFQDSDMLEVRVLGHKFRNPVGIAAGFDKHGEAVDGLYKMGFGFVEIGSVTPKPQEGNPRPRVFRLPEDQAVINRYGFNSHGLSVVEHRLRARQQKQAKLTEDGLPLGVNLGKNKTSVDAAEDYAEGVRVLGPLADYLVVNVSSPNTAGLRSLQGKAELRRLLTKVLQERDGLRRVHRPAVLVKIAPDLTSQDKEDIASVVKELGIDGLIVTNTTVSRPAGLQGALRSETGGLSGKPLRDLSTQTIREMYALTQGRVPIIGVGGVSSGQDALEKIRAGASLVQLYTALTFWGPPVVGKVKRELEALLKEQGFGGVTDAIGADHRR

As to `O=C(O)C1=C(C(=O)Nc2ccc(-c3ccccc3F)cc2)CCC1` [Compound 13, 2-((2′-fluoro-[1,1′-biphenyl]-4-yl)carbamoyl)cyclopent-1-enecarboxylic acid], in data set [1], the 50% inhibitory concentration (IC50) was above 1500 nM.

On to `O=C(O)C1=C(C(=O)Nc2ccc(-c3ccccc3Cl)cc2)CCC1` [Compound 14, 2-((2′-chloro-[1,1′-biphenyl]-4-yl)carbamoyl)cyclopent-1-enecarboxylic acid], for which the half-maximal inhibitory concentration (IC50) in data set [1] is above 1500 nM. On the same count and under the same terms, the figure for `COc1ccc(-c2ccc(NC(=O)C3=C(C(=O)O)CCC3)cc2Cl)cc1` [Compound 19, 2-((2-chloro-4′-methoxy-[1,1′-biphenyl]-4-yl)carbamoyl)cyclopent-1-enecarboxylic acid] is below 800 nM. Same read-out and setting: the figure for `O=C(O)C1=C(C(=O)Nc2cc(Br)c(OCc3cc(F)ccc3F)c(Br)c2)CCC1` [Compound 24, 2-((3,5-dibromo-4-((2,5-difluorobenzyl)oxy)phenyl)carbamoyl)cyclopent-1-enecarboxylic acid] is 800 to 1500 nM. As for `O=C(O)C1=C(C(=O)Nc2cc(Br)c(OCc3ccc(F)c(F)c3)c(Br)c2)CCC1` [Compound 25, 2-((3,5-dibromo-4-((3,4-difluorobenzyl)oxy)phenyl)carbamoyl)cyclopent-1-enecarboxylic acid], in data set [2] (recombinant human DHODH, class symbols, key in nM, read-out: human IC50-Value), the half-inhibitory concentration (IC50) was below 800 nM. Consider `O=C(O)C1=C(C(=O)Nc2ccc(-c3cccc(F)c3)cc2F)CCC1` [Compound 27, 2-((3,3′-difluoro-[1,1′-biphenyl]-4-yl)carbamoyl)cyclopent-1-enecarboxylic acid], for which the half-maximal inhibitory concentration (IC50) in data set [1] was above 1500 nM. The same measure, in the same setting: then `O=C(O)C1=C(C(=O)Nc2cc(Br)c(OCc3ccccc3)c(Br)c2)CSC1` [Compound 29, 4-((4-(benzyloxy)-3,5-dibromophenyl)carbamoyl)-2,5-dihydrothiophene-3-carboxylic acid], with above 1500 nM. `O=C(O)C1=C(C(=O)Nc2ccc(-c3ccccc3Cl)cc2)CSC1` [Compound 41, 4-((2′-chloro-[1,1′-biphenyl]-4-yl)carbamoyl)-2,5-dihydrothiophene-3-carboxylic acid]: in data set [1], the IC50 was above 1500 nM. As to `Cc1cccc(Sc2ccc(NC(=O)C3=C(C(=O)O)CCC3)cc2)c1` [Compound 42, 2-((4-(m-tolylthio)phenyl)carbamoyl)cyclopent-1-enecarboxylic acid], the half-inhibitory concentration (IC50) in data set [1] is below 800 nM. Same read-out and setting: then `CCOc1cccc(-c2ccc(NC(=O)C3=C(C(=O)O)CCC3)c(F)c2)c1` [Compound 46, 2-((3′-ethoxy-3-fluoro-[1,1′-biphenyl]-4-yl)carbamoyl)cyclopent-1-enecarboxylic acid], with above 1500 nM; and `O=C(O)C1=C(C(=O)Nc2ccc(Oc3ccccc3)cc2)CCC1` [Compound 50, 2-((4-phenoxyphenyl)carbamoyl)cyclopent-1-enecarboxylic acid], with below 800 nM; and `COc1ccccc1-c1ccc(NC(=O)C2=C(C(=O)O)CCC2)c(Cl)c1` [Compound 53, 2-((3-chloro-2′-methoxy-[1,1′-biphenyl]-4-yl)carbamoyl)cyclopent-1-enecarboxylic acid], with 800 to 1500 nM. Same read-out and setting: then `COc1ccccc1-c1ccc(NC(=O)C2=C(C(=O)O)CCC2)cc1Cl` [Compound 54, 2-((2-chloro-2′-methoxy-[1,1′-biphenyl]-4-yl)carbamoyl)cyclopent-1-enecarboxylic acid], with 800 to 1500 nM; and `COc1ccccc1-c1c(F)c(F)c(NC(=O)C2=C(C(=O)O)CCC2)c(F)c1F` [Compound 56, 2-((2,3,5,6-tetrafluoro-2′-methoxy-[1,1′-biphenyl]-4-yl)carbamoyl)cyclopent-1-enecarboxylic acid], with below 800 nM; and `COc1ccccc1-c1ccc(NC(=O)C2=C(C(=O)O)CCC2)c(C)c1` [Compound 57, 2-((2′-methoxy-3-methyl-[1,1′-biphenyl]-4-yl)carbamoyl)cyclopent-1-enecarboxylic acid], with 800 to 1500 nM. On the same count and under the same terms, the figure for `COc1ccccc1-c1cc(Cl)c(NC(=O)C2=C(C(=O)O)CCC2)c(Cl)c1` [Compound 58, 2-((3,5-dichloro-2′-methoxy-[1,1′-biphenyl]-4-yl)carbamoyl)cyclopent-1-enecarboxylic acid] is 800 to 1500 nM; for `CCOc1ccccc1-c1cc(F)c(NC(=O)C2=C(C(=O)O)CCC2)c(F)c1` [Compound 62, 2-((2′-ethoxy-3,5-difluoro-[1,1′-biphenyl]-4-yl)carbamoyl)cyclopent-1-enecarboxylic acid] it is 800 to 1500 nM. Take `CCOc1cccc(-c2cc(F)c(NC(=O)C3=C(C(=O)O)CCC3)c(F)c2)c1` [Compound 63, 2-((3′-ethoxy-3,5-difluoro-[1,1′-biphenyl]-4-yl)carbamoyl)cyclopent-1-enecarboxylic acid]: the half-inhibitory concentration (IC50) in data set [1] lay in the range of 800 to 1500 nM. Consider `O=C(O)C1=C(C(=O)Nc2c(F)cc(-c3ccccc3F)cc2F)CCC1` [Compound 66, 2-((2′,3,5-trifluoro-[1,1′-biphenyl]-4-yl)carbamoyl)cyclopent-1-enecarboxylic acid], for which, in data set [1], the IC50 lay in the range of 800 to 1500 nM. Still for that read-out and setting: then `COc1ccc(-c2cc(F)c(NC(=O)C3=C(C(=O)O)CCC3)c(F)c2)c(OC)c1` [Compound 67, 2-((3,5-difluoro-2′,4′-dimethoxy-[1,1′-biphenyl]-4-yl)carbamoyl)cyclopent-1-enecarboxylic acid], with above 1500 nM; and `O=C(O)C1=C(C(=O)Nc2ccc(OCc3ccccc3C(F)(F)F)c(Cl)c2)CCC1` [Compound 68, 2-((3-chloro-4-((2-(trifluoromethyl)benzyl)oxy)phenyl)carbamoyl)cyclopent-1-enecarboxylic acid], with above 1500 nM. With `O=C(O)C1=C(C(=O)Nc2ccc(OCc3c(F)cccc3Cl)c(Cl)c2)CCC1` [Compound 69, 2-((3-chloro-4-((2-chloro-6-fluorobenzyl)oxy)phenyl)carbamoyl)cyclopent-1-enecarboxylic acid], the concentration for half-maximal inhibition (IC50) in data set [2] and in data set [1] was below 800 nM each time. Regarding `O=C(O)C1=C(C(=O)Nc2ccc(OCc3ccccc3)c(Cl)c2)CCC1` [Compound 72, 2-((4-(benzyloxy)-3-chlorophenyl)carbamoyl)cyclopent-1-enecarboxylic acid], in data set [1], the 50% inhibitory concentration (IC50) was 800 to 1500 nM. On the same count and under the same terms, the figure for `O=C(O)C1=C(C(=O)Nc2ccc(OCc3ccccc3F)c(Cl)c2)CCC1` [Compound 74, 2-((3-chloro-4-((2-fluorobenzyl)oxy)phenyl)carbamoyl)cyclopent-1-enecarboxylic acid] is below 800 nM. Turning to `CCNCC.COc1cccc(-c2ccc(NC(=O)C3=C(C(=O)O)CCC3)c(F)c2)c1` [Diethylamine (DEA) salt], in data set [3], the “% water uptake at 95% r.h.” value is 0.5% and the “% water uptake at 85% r.h.” value is 0.2%. This compound also returned a Peak area in data set [4] (HPLC after 18 months storage at ambient conditions (20-25° C., 30-60% relative humidity)) above 99%. For the same compound, in data set [4] (ambient conditions (20-25° C., 30-60% relative humidity), LOD for hydrolysis product: 0.1 μg/ml), the “Occurrence of hydrolysis product in HPLC after 18 months storage” value is listed as “Below LOD*”. With `COc1cccc(-c2ccc(NC(=O)C3=C(C(=O)[O-])CCC3)c(F)c2)c1.[K+]` [K salt], in data set [3], the “% water uptake at 95% r.h.” value is “Ca. 1%” and the “% water uptake at 85% r.h.” value is reported as “Ca. 0.5%”. In the case of `COc1cccc(-c2ccc(NC(=O)C3=C(C(=O)O)CCC3)c(F)c2)c1.N=C(N)NCCCC(N)C(=O)O` [L-Arginine salt], in data set [3], the “% water uptake at 95% r.h.” value is recorded as above 12% and the “% water uptake at 85% r.h.” value was 1.7%. Besides, the “% water uptake at 95% r.h.” value in data set [3] (listed as arginine salt) is recorded as above 12%. With `COc1cccc(-c2ccc(NC(=O)C3=C(C(=O)[O-])CCC3)c(F)c2)c1.COc1cccc(-c2ccc(NC(=O)C3=C(C(=O)[O-])CCC3)c(F)c2)c1.[Mg+2]` [Mg salt], in data set [3], the “% water uptake at 95% r.h.” value is recorded as “Ca. 10%” and the “% water uptake at 85% r.h.” value is reported as “Ca. 5%”.

As to `COc1cccc(-c2ccc(NC(=O)C3=C(C(=O)[O-])CCC3)c(F)c2)c1.[Na+]` [Na salt], in data set [3], the “% water uptake at 95% r.h.” value is reported as “Ca. 7.5%” and the “% water uptake at 85% r.h.” value was “Ca. 5%”.
